Laboratory results as given in patent publication US3974184A, “Microbial production of certain isoflavones” (Zaidan Hojin Biseibutsu Kagaku Kenkyu Kai, priority 1973, dated 1976).
Where two headings read alike, the source gives them in different places.

Assays:
[1] = biological target: T1, dopamin-β-hydroxylase (Bos taurus, UniProt P15101); test: Inhibition of dopamin-β-hydroxylase; type: biochemical; details: at 100 .nu./cc
T1 sequence (P15101 1-610): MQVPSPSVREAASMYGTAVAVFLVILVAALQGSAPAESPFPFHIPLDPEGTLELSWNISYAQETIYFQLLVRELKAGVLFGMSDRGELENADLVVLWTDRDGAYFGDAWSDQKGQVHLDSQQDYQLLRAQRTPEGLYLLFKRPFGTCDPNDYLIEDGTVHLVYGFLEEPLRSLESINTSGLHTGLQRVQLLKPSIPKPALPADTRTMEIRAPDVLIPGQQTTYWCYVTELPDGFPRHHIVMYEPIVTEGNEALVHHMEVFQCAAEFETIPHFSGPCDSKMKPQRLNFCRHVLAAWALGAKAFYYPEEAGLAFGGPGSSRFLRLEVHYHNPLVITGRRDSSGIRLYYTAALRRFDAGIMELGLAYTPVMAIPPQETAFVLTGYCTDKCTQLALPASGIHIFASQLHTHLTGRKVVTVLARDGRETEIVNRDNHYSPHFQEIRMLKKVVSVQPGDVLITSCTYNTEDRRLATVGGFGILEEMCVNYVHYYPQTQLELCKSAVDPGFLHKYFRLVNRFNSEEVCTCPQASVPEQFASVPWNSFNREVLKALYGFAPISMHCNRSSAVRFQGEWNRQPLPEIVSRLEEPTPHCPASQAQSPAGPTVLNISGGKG

[2] = Solubility; type: physicochemical
Text: Now the extractive purification of the compounds (I), (II) and (III) will be described. […] These compounds are extracted from the culture filtrate under acidic conditions with butanol, butyl acetate, etc. or also from the fungus solid body (mycelium) with methanol, acetone, etc. The filtrate from the mycelial extract is concentrated by distillation under diminished pressure and the concentrated liquid, after having been adjusted to be acidic, is subjected to an extraction operation with butyl acetate or butanol. The thusly extracted liquid is mixed with the solution of butyl acetate or butanol separately extracted from the culture liquid, and then concentrated to dryness under diminished pressure.

[3] = system: rats; test: Toxicity in rats, administration into the abdominal cavity; type: in vivo; details: 200 mg./kg., abdominal cavity of rats, 25% aqueous dimethyl sulfoxide
Text: Now the compounds (I), (II) and (III) will be described with respect to their biological properties.

[4] = biological target: T2, catechol-O-methyl transferase (COMT) (Rattus norvegicus, UniProt P22734); test: Inhibition of catechol-O-methyl transferase (formation of tritium metanephrine); type: biochemical
T2 sequence (P22734 1-221 isoform P22734-2): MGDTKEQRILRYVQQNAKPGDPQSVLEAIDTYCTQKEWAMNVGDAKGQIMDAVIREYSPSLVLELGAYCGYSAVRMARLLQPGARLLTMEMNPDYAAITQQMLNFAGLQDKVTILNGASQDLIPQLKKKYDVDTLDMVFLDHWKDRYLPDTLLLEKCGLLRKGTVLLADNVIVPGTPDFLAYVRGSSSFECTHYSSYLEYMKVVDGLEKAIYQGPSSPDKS
Description: The compounds (I), (II) and (III) can be determined by measuring inhibition of COMT. The activity of COMT is measured in accordance with the method reported by B. Nikodejevic et al. (Ref. "The Journal of Pharmacology and Experimental Therapeutics", Vol. 174, pp. 83-93, by B. Nikodejevic et al., 1970). 0.5 cc total volume of reaction liquid is prepared from 0.125 cc of water, 0.05 cc of 0.1 mole phosphate buffer solution (pH 8.0), 0.1 cc of 0.1 mole magnesium chloride solution, 0.05 cc. of 0.05 mole adrenaline solution, 0.075 cc of 0.5 millimole tritium-8-adenosyl methionine aqueous solution (2.2 × 10^5 cpm), 0.05 cc of sample solution and 0.05 cc of enzyme solution. These solutions are mixed together at 0° C. and, after reacting for 20 minutes at 37° C., 1 cc of 0.5 mole boric acid buffer solution (pH 10.0) is added to stop the reaction. Then, tritium metanephrine (^3 H-metanephrine) wherein the meta-hydroxyl group has been methylated is extracted with a solvent mixture such as toluene-isoamyl alcohol (3:2). A quantity of solvent portion is then sampled and its radioactivity is measured by use of a liquid scintillation counter. The thusly obtained measurement of radioactivity tells the quantity of formed metanephrine, which in turn permits one to determine the inhibition.

[5] = isolated compounds, read-out: concentration inhibiting the activity of COMT by 50% (converted)
[6] = powders from silica gel fractions, Example 1, read-out: concentration showing 50% inhibition against COMT (converted)

Compound	inhibiting action against dopamin-β-hydroxylase [1]	solubility in alkaline water, methanol, ethanol and acetone [2]	solubility in butanol, ethyl acetate and butyl acetate [2]	toxicity [3]	IC50 [4, 5] [µM]	IC50 [4, 6] [µM]	selectivity for COMT against the other enzymes ([4]; in words, other enzymes: tyrosine hydroxylase, dopamin-β-hydroxylase, DOPA decarboxylase, histidine decarboxylase)
COc1ccc(-c2coc3cc(O)c(OC)c(O)c3c2=O)cc1O [Compound (I), 3',5,7-trihydroxy-4',6-dimethoxy-isoflavone]	no inhibiting action	soluble	slightly soluble	no toxicity			
COc1ccc(-c2coc3c(OC)c(O)cc(O)c3c2=O)cc1O [Compound (II), 3',5,7-trihydroxy-4',8-dimethoxy-isoflavone]	no inhibiting action	soluble	slightly soluble	no toxicity	15.1	236	
COc1ccc(-c2coc3c(OC)c(O)c(OC)cc3c2=O)cc1O [Compound (III), 3',7-dihydroxy-4',6,8-trimethoxy-isoflavone]	no inhibiting action	soluble	slightly soluble	no toxicity	0.581	14.5	inhibiting action only against COMT and not against the other enzymes
